Source: US20190112357A1, “PREVENTION OF PROTEIN DISULFIDE BOND REDUCTION” (MedImmune, LLC, priority 2016, published 2019)
Blank lines part the entries; values can stand above or below the molecule they belong to.

What was measured:
GR/GSSG = biological target: T1, GR/GSSG (Homo sapiens, UniProt P00390); experiment: DTNB reductase activity assay, recombinant GR/GSSG; assay type: biochemical; conditions: 2-AAPA at 100 μM and higher
T1 construct: purchased Abcam
T1 sequence (P00390 44-522): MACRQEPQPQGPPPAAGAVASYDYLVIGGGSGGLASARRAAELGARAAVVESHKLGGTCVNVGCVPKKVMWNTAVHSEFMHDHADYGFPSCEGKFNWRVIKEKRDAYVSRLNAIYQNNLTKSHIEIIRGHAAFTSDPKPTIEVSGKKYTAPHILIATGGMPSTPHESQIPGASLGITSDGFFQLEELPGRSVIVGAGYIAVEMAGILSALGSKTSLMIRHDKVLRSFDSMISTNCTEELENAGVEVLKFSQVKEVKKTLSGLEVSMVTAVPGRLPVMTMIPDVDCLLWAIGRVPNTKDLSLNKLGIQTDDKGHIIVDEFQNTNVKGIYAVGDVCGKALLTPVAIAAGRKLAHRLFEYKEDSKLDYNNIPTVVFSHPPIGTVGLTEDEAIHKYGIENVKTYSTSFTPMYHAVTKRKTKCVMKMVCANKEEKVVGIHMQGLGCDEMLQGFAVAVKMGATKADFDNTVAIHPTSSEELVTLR
Procedure: (§1) Briefly, culture samples were thawed on ice. […] The samples were then allowed to incubate 5 minutes.
(§2) Activity of the reductases was calculated as follows. […] The activity was then calculated by the following equation: […]

[1] = biological target: T2, recombinant mammalian GR/GSSG (Homo sapiens, UniProt P00390); experiment: Reduction of purified mAb B by recombinant GR/GSSG, capillary electrophoresis; assay type: biochemical
T2 construct: purchased Abcam
T2 sequence (P00390 44-522): T1 sequence (P00390 44-522)
Procedure: (§3) Antibody reduction in cell culture supernatant samples was measured by detecting the presence of reduced species via capillary electrophoresis using standard procedures on a 2100 Bioanalyzer system (Agilent Technologies, Santa Clara, Calif.). Samples were diluted 1-6 fold depending on titer and analyzed under non-reducing conditions following 2100 Bioanalyzer standard protocols. Supernatant samples from 3 L bioreactors were stored frozen until all samples had been acquired and were ready for analysis. Samples were thawed on ice and analyzed immediately to evaluate the amount of reduced antibody in the reactor on each day of the run.
Using the same approach with recombinant mammalian enzymes, the glutathione system was evaluated by spiking mAb B into five solutions containing: 1) no enzyme, 2) 1 mM GSSG (oxidized glutathione), 3) 0.2 μM GR (glutathione reductase), 4) 0.2 μM GR with 1 mM GSSG, and 5) 0.02 μM GR with 1 mM GSSG. […] The results indicated a minimal mAb B reduction in the solutions containing GSSG alone. This is the result of an impurity in the GSSG. […] was reduced in the solutions containing both GR and GSSG.
(§4) To confirm that the activity from a particular reductase system can translate into reduced antibody, a second method was developed to determine the impact of each reductase system on antibody reduction. The principle of the reduction assay is similar to the reductase activity assay described above. The percent of protein reduction without an inhibitor was compared to the percent of protein reduction in the presence of specific inhibitors for GR or TrxR1. In this assay, purified mAb B was spiked into solutions containing recombinant mammalian TrxR1/Trx1 or recombinant mammalian GR/GSSG and stored in an oxygen-free environment overnight. The percent of reduced mAb B antibody was evaluated using capillary electrophoresis, as set forth above.

[2] = tested on: GR purified from a day 14 culture of cell line B; experiment: DTNB reductase activity of 2'5'-ADP column fractions from cell line B, GR; assay type: biochemical, Chinese Hamster; conditions: 100 μM 2-AAPA, fractions B1-C2, depending on the fraction
Procedure: Reductases were purified from cell samples to verify the specificity of reductase inhibitors. A day 14 culture of mAb B (IgG antibody produced by CHO cell line B CHO-K1SV) was pelleted by centrifugation, washed once with PBS and re-suspended in 50 mM tris buffer, pH 7.5. The solution was homogenized and filtered at 0.2 μm prior to loading onto a column of 2′5′-ADP Sepharose 4B resin. The reductases were eluted using a linearly increasing gradient of 0 to 0.3 mM NADP^+ in the same tris buffer (Yadav, et al., Parasitol. Int., 62:193-198, 2013). The reductase activity of the collected fractions was determined using the assay described in Example 3. Additionally, western blot analysis was used to detect TrxR1 and GR in the collected fractions.
The reductase-specific inhibitors were evaluated above using purified recombinant mammalian enzymes from rat and human. […] The added activity from the two systems was approximately equal to the total activity detected in the absence of an inhibitor for each fraction. […] That is, if the reductase inhibitors were non-specifically inhibiting both enzymatic systems, the added reductase activity would have been […] than the reductase activity detected without any added inhibitor. […] The fractions with reductase activity were pooled and further evaluated at the inhibitor concentrations assayed in the antibody reduction assay.

glutathione system = experiment: Reductase activity assay, day 14 culture samples, glutathione system; assay type: biochemical, Chinese Hamster; conditions: day 14, 100 μM 2-AAPA
Procedure: The total reductase activity was determined in the absence of any inhibitor. […] Thus, the difference in activity between a sample with ATG, and a sample without any inhibitor, indicates the amount of reductase activity contributed the thioredoxin system. […] Thus, the difference in reductase activity between a sample with 2-AAPA, and a sample without any inhibitor, indicates the amount of reductase activity contributed by the glutathione system. Although ATG and 2-AAPA are provided as exemplary specific inhibitors, other specific inhibitors discussed above can be employed in this assay instead of ATG and 2-AAPA.
as §1, §2
The reductase activities of the thioredoxin and glutathione systems were evaluated in day 14 culture samples of the same CHO cell lines A, B, C, and D, using the previously evaluated specific inhibitors 2-AAPA and ATG at 100 μM and 0.5 μM respectively. Data in FIG. 6A were normalized to viable cell density. Cell lines A, B, and C were described in Example 6, above. Cell line D is the cell line CHO CAT-S, and is stably transfected to produce an IgG1 mAb (mAb D).

recombinant TrxR1/Trx1 = biological target: T3, recombinant TrxR1/Trx1 (Rattus norvegicus, UniProt O89049); experiment: DTNB reductase activity assay, recombinant TrxR1/Trx1; conditions: 2-AAPA 10 μM to 200 μM
T3 sequence (O89049 1-499): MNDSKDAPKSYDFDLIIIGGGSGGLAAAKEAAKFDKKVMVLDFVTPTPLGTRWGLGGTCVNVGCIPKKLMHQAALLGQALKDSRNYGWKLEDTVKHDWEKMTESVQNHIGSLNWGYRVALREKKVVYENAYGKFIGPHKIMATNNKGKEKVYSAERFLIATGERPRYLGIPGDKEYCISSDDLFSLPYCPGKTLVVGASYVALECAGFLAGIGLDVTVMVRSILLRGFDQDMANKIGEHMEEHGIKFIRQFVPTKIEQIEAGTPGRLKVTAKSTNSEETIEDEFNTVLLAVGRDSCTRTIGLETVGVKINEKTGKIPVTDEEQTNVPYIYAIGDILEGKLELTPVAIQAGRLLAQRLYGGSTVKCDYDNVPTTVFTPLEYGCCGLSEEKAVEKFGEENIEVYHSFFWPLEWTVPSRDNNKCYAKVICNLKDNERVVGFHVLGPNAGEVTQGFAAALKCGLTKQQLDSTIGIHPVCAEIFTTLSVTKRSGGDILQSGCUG
Procedure: This assay allows determination of the total reductase activity in a culture sample, as well as determination of the individual contribution made by thioredoxin reductase and glutathione reductase to the total reductase activity of the sample. In this assay, culture samples (cells+media) from 3 L bioreactors were stored frozen until the end of the run, after which the samples were centrifuged to remove the cell pellet then the resulting supernatant was diluted 20-fold into 100 mM tris buffer, pH 7.4, containing 0.4 mM NADPH, 0.15 mM oxidized glutathione, and 3 mM DTNB with the indicated concentration of specific reductase inhibitor. Addition of the enzyme specific inhibitors to the samples allowed the total reductase activity to be determined as well as the individual activity from the thioredoxin and glutathione systems. Reductase activity was monitored by spectroscopic measurement of the increase in absorbance at a wavelength of 412 nm. […] The detected increase in absorbance at this wavelength is caused by the reduction of DTNB (Arnér, ESJ, Biochim. Biophys. Acta—Gen. Subj., 1790:495-526, 2009).
Briefly, culture samples were thawed on ice. […] The absorbance at a wavelength of 412 nm was determined every 30 seconds, for 20 minutes.
Activity of the reductases was calculated as follows. The change in absorbance per minute (Δ412) for each well was determined. […]

[3] = biological target: T4, recombinant mammalian TrxR1/Trx1 (Rattus norvegicus, UniProt O89049); experiment: Reduction of purified mAb B by recombinant TrxR1/Trx1, capillary electrophoresis; assay type: biochemical, human (Trx1)
T4 construct: purchased Cayman Chemical (TrxR1); Abcam (Trx1)
T4 sequence (O89049 1-499): T3 sequence (O89049 1-499)
Procedure: as §3
The role of each enzymatic system in antibody reduction was evaluated by determining the conditions under which these reductase systems cause antibody reduction. Using purified recombinant mammalian reductases, the thioredoxin system was evaluated by spiking purified mAb B into five solutions containing: 1) no enzymes, 2) 1 μM TrxR1, 3) 0.1 μM TrxR1, 4) […], and 5) 0.1 μM TrxR1+2.5 μM Trx1. All samples contained 0.4 mM NADPH and were stored at room temperature overnight. Digital gel-like images were obtained from microchip-based capillary electrophoresis analysis.
as §4

[4] = tested on: GR isolated from CHO cell culture; experiment: mAb B reduction by pooled CHO fractions with NADPH and GSSG; assay type: biochemical, Chinese Hamster; conditions: 3 μM Cu^2+ or 100 μM ATG, overnight room temperature
Procedure: (§5) Purified mAb B was spiked into several solutions containing different combinations of the pooled fractions (PF), recombinant Trx1, GSSG, NADPH, ATG, and Cu^2+. The solutions were incubated at room temperature overnight and the amount of intact antibody remaining was determined by capillary electrophoresis according to the protocol described above. In the first set of samples, purified mAb B was spiked into the pooled fractions with, and without, NADPH.
In the second set of samples, purified mAb B was spiked into solutions containing the pooled enzymes, NADPH, GSSG, and either no inhibitor, 3 μM Cu^2+, or 100 μM ATG. […] This solution contained GR, GSSG, and NADPH, which are needed for the glutathione system.

[5] = tested on: TrxR1 purified from CHO cell cultures; experiment: mAb B reduction by pooled CHO fractions with NADPH and Trx1; assay type: biochemical, Chinese Hamster; conditions: 3 μM Cu^2+ or 100 μM ATG, overnight room temperature
Procedure: as §5
The third set of solutions contained the pooled enzymes, NADPH, Trx1, and either no inhibitor, 3 μM Cu^2+, or 100 μM ATG. […] In the final sample as a control, mAb B was spiked into a solution containing NADPH, Trx1, and GSSG.

[6] = Antibody reduction potential assay (Vacuum/GX); assay type: physicochemical; conditions: EDTA 9.5, 19, 38 mM or Cystine 4 and 8 mM
Procedure: Bioreactor samples (1 mL) were obtained daily and centrifuged at 3000-4000 RPM and the supernatant was frozen immediately at −80° C. On the day prior to the assay, the samples were removed from −80° C. storage, thawed, and placed in a vacuum chamber at room temperature overnight to induce reduction of the monoclonal antibody without the interference of oxygen. After the vacuum hold, the samples were analyzed for protein fragmentation under non-reducing conditions using a BioAnalyzer system (Agilent Technologies) or a LABCHIP® GXII system (PerkinElmer) to detect antibody fragments resulting from the breakage of the antibody's interchain disulfide bonds. […]
Samples were stored frozen until analyzed. […] After being denatured and the free thiols being capped by NEM, the samples were analyzed using a Perkin Elmer Labchip® GXII (Perkin Elmer, Waltham, Mass.) to perform size fractionation and quantification. Using the Labchip® GXII, the protein and fragments were detected by laser-induced fluorescence and translated into gel-like images (bands) and electropherograms (peaks).
Reduction potential, i.e. the potential of the molecule to be reduced under anaerobic condition, was measured by subjecting samples to vacuum analysis as described above followed addition of non-reducing sample buffer. […]

[7] = Antibody aggregation analysis (HP-SEC); assay type: physicochemical; conditions: EDTA 9.5, 19, 38 mM or Cystine 4 and 8 mM
Procedure: The percent of antibody aggregates was determined using standard size exclusion chromatography (HP-SEC) methods. An Agilent 1200 series system was used with a Tosoh Bioscience TSKgel G3000SW XL column (Tosoh Bioscience LLC, King of Prussia, Pa.) (7.8 mm×300 mm) at 1 mL/min flow rate using a mobile phase buffer of 0.1 M sodium phosphate, 0.1 M sodium sulfate, pH 6.8. The absorbance chromatography at 280 nm was used to quantify the results.

- GR/GSSG activity (GR/GSSG): completely inhibiting
- behaviour of 2-AAPA in the antibody reduction assay ([1]; same method as for ATG): directly caused antibody reduction
- share of total reductase activity caused by the glutathione system (glutathione system; cell line A): 70%
- share of total reductase activity caused by the glutathione system (glutathione system; cell line B): 45%
- share of total reductase activity caused by the glutathione system (glutathione system; cell line C): 5%
- share of total reductase activity caused by the glutathione system (glutathione system; cell line D): 45%
- effect on the reductase activity of TrxR1/Trx1 solutions (recombinant TrxR1/Trx1): minimal effect
SMILES: CC(=O)NC(CSC(=S)Nc1ccc(NC(=S)SCC(NC(C)=O)C(=O)O)cc1)C(=O)O (stereo not shown) [2-AAPA, 2-Acetylamino-3-[4-(2-acetylamino-2-carboxyethylsulfanylthiocarbonyl-amino)phenylthiocarbamoylsulfanyl]propionic acid]
- share of reductase activity from glutathione reductase, determined with the inhibitor [2]: 25-40%

SMILES: O=S(=O)([O-])[O-].[Cu+2] [Cu^2+, copper (II) sulfate]
- intact antibody remaining in the TrxR1/Trx1 sample ([3]; 3 μM Cu^2+): 20%
- antibody reduction from the thioredoxin system ([3]; Cu^2+ 3-100 μM): only partially inhibited
- antibody reduction caused by GR/GSSG ([1]; 3 μM Cu^2+): almost completely inhibited
- antibody reduction in samples containing GR/GSSG ([1]; Cu^2+ 3-100 μM): prevented antibody reduction
- antibody reduction in pooled enzymes, NADPH, GSSG [4]: completely inhibited all antibody reduction
- antibody reduction in pooled enzymes, NADPH, Trx1 [5]: marginally prevented antibody reduction

- reduction potential at the time of harvest of sheared mAb E material [6]: no reduction potential
- aggregation of sheared mAb E material after 8 days at 2-8° C. [7]: limited the extent of mAb aggregation
SMILES: O=C(O)CN(CCN(CC(=O)O)CC(=O)O)CC(=O)O [EDTA, ethylenediamine tetraacetic acid]
